Reference: ChEMBL document CHEMBL3046593, “Studies on the synthesis of some new substituted benzylamino and phenyl-acrylamido-methyl flavone derivatives” (2007)
Activity calls are given as the source filed them. No cut-off for these calls is given here.

What was measured:
Format in all cases: functional
Conditions in all cases: for zone of inhibition at 3000 µg/mL: read-out: DIZ
Candida albicans = experiment: Antifungal activity against Candida albicans RSKK 628 at 3000 ug/ml after 18 to 24 hr by disk diffusion method
Escherichia coli = experiment: Antibacterial activity against Escherichia coli RSKK 313 at 3000 ug/ml after 18 to 24 hr by disk diffusion method
Staphylococcus aureus = experiment: Antibacterial activity against Staphylococcus aureus ATCC 250 at 3000 ug/ml after 18 to 24 hr by disk diffusion method

SMILES	zone of inhibition at 3000 µg/mL (Candida albicans) [mm]	zone of inhibition at 3000 µg/mL (Escherichia coli) [mm]	diameter of the inhibition zone (DIZ) (Staphylococcus aureus)	diameter of the inhibition zone (DIZ) (Escherichia coli)	diameter of the inhibition zone (DIZ) (Candida albicans)	zone of inhibition at 3000 µg/mL (Staphylococcus aureus) [mm]
Clc1ccc(COC(Cn2ccnc2)c2ccc(Cl)cc2Cl)c(Cl)c1 (stereo not drawn) [MICONAZOLE]	35	–	–	–	–	–
O=C(/C=C/c1ccccc1)N(Cc1ccc(Cl)cc1)Cc1cccc(-c2cc(=O)c3ccccc3o2)c1	13	12	inactive	–	–	–
O=C(/C=C/c1ccccc1)N(Cc1ccc(F)cc1)Cc1cccc(-c2cc(=O)c3ccccc3o2)c1	–	–	inactive	inactive	inactive	–
CC1(C)S[C@@H]2[C@H](NC(=O)[C@H](N)c3ccccc3)C(=O)N2[C@H]1C(=O)O [AMPICILLIN]	–	20	–	–	–	30
O=c1cc(-c2cccc(CNCc3ccc(Cl)cc3Cl)c2)oc2ccccc12	–	–	–	inactive	inactive	10
O=c1cc(-c2cccc(CNCc3ccc(Cl)cc3)c2)oc2ccccc12	15	–	–	inactive	–	25
O=c1cc(-c2cccc(CNCc3ccc(Cl)c(Cl)c3)c2)oc2ccccc12	10	12	–	–	–	16
O=C(/C=C/c1ccccc1)N(Cc1ccccc1)Cc1cccc(-c2cc(=O)c3ccccc3o2)c1	–	–	–	inactive	inactive	10
O=C(/C=C/c1ccccc1)N(Cc1cccc(-c2cc(=O)c3ccccc3o2)c1)Cc1ccc(Cl)cc1Cl	15	–	inactive	inactive	–	–
O=C(/C=C/c1ccccc1)N(Cc1cccc(-c2cc(=O)c3ccccc3o2)c1)Cc1ccc(Cl)c(Cl)c1	15	–	inactive	inactive	–	–
O=c1cc(-c2cccc(CNCc3ccc(F)cc3)c2)oc2ccccc12	20	–	–	inactive	–	15
O=c1cc(-c2cccc(CNCc3ccccc3)c2)oc2ccccc12	25	10	–	–	–	16
